# Assay results from patent US9115072B2, “Compounds and method for reducing uric acid” (WELLSTAT THERAPEUTICS CORPORATION, priority 2008, dated 2015).
# pIC50: −log10 of the molar value.
# Experiments:
# [1] = test system: mice treated with the uricase inhibitor potassium oxonate; experiment: Uric acid excretion in urine of mice treated with the uricase inhibitor potassium oxonate; type: in vivo, mouse; conditions: for Urine Uric Acid: urine collected between 3 and 5 hours after drug; for Effect on uric acid in urine versus the Oxonate control group (in words): urine collected between 3 and 5 hours after drug administration
# Description: The model to induce hyperuricemia involves the use of the uricase (urate oxidase) inhibitor potassium oxonate that causes a delay in the degradation of uric acid to allantoin. Humans have little or no uricase activity, so inhibition of this enzyme with potassium oxonate makes mouse uric acid processing more similar to that of humans. Male 11-week old C57/B16 mice (Harlan, Frederick, Md.) were used in the studies (8 per experimental group). Mice were receiving standard rodent chow that was removed one hour before administration of potassium oxonate. Mice were given an intraperitoneal injection (i.p.) of potassium oxonate (300 mg/kg) that was suspended in 0.5% hydroxypropylmethylcellulose (HPMC). […] Urine collection was performed at 1, 3 and 5 hours after drug treatments and uric acid was measured with a colorimetric assay (BioVision Research Products, Mountain View, Calif.).
# [2] = test system: healthy, normal men and women; experiment: Single oral dose clinical study, blood/plasma uric acid levels (Examples 1 and 4); type: in vivo, human; conditions: for Mean Percent Change (blood uric acid levels): before vs 24 hours after administration
# Procedure: Five groups of 4 healthy, normal men and women received a single, oral administration of escalating doses of Compound BI (n=3 per group) or placebo capsules (n=1 per group) in a randomized, double blind clinical study. Blood uric acid levels were measured before and 24 hours after administration of study treatment. Compound BI was administered at doses of 50, 100, 200, 400 or 800 mg.
# Plasma samples taken immediately prior to and at 1, 2, 4, 6, 12 and 24 hours after a single, oral administration of a test compound to 4 healthy, normal men and women in each of three groups as described above in Example 1 were analyzed to determine uric acid levels. Compound BI (n=3 per group) or placebo capsules (n=1 per group) were administered in a randomized, double blind clinical study. Plasma samples taken at the time points indicated from patients receiving Compound BI at doses of 200, 400 or 800 mg were stored at −70° C. and analyzed at a later time.
# [3] = test system: healthy normal men and women; experiment: Seven-day once/twice daily dosing clinical study, blood/plasma uric acid levels (Examples 2 and 5); type: in vivo, human; conditions: for Percent Change in Uric Acid Levels Following a Single Administration of Study Treatment, Mean Percent Change: 24 hours after the first administration; for Percent Change in Uric Acid Levels Following a Daily Administration of Study Treatment for Seven Days, Mean Percent Change: after 7 consecutive days; for Effect on blood uric acid levels (in words): 400 mg twice per day or 800 mg once per day groups
# Procedure: Two groups of 8 healthy normal men and women received oral administration of either 800 mg Compound BI once per day (n=6 per group) or 400 mg Compound BI twice per day (n=6 per group) or placebo capsules (n=2 per group) in a randomized, double blind clinical study. Blood uric acid levels were measured before administration of study treatment, 24 hours after the first administration of study treatment and after 7 consecutive days of study treatment administration.
# Sixteen men and women participating in a clinical study were randomly assigned to receive either placebo capsules (n=4 subjects), 400 mg Compound BI twice per day (n=6 subjects), or 800 mg Compound BI once per day (n=6 subjects) for seven consecutive days. Plasma samples taken prior to (Time 0) and at 1, 2, 4, 9, 11, 13, 18 and 24 hours after the initial administration of the test article on Day 7 of the study were stored at −70° C. and later analyzed for uric acid. (This Example 5 is a continuation of the experiment described in Example 2.)
# human URAT1 = biological target: T1, human URAT1 (Homo sapiens, UniProt Q96S37); experiment: URAT1 inhibition assay, [8-14C] urate uptake in hURAT1-HEK cells; type: cell-based; conditions: 50 μM [8-14C] urate
# T1 construct: The full-length hURAT1 cDNA was obtained from the vector pCMV6-XL5 and subcloned into the expression vector pCMV6-Neo
# T1 sequence (Q96S37 1-553): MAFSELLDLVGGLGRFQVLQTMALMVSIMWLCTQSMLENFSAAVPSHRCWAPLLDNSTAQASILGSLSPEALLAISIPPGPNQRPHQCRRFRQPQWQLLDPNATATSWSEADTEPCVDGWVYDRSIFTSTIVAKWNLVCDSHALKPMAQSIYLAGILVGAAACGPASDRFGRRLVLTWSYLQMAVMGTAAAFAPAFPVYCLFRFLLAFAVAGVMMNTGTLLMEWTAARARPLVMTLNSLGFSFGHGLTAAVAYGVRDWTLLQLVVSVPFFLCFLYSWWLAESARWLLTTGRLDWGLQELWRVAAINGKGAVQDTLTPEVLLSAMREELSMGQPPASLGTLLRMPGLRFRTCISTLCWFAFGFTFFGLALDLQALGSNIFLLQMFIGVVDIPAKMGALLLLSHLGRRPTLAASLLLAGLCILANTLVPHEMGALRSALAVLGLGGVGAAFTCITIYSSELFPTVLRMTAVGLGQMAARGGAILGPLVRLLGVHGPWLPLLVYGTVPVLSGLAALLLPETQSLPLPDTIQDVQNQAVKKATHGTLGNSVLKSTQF
# Procedure: A suitable assay involves transfection of cells (e.g. human embryonic kidney cells; “HEK”) with a vector encoding human URAT1, followed by determination of the ability of transfected cells to take up radiolabeled uric acid. The activity of compounds as URAT1 inhibitors is evaluated by their ability to block uric acid uptake by transfected cells.
# Urate (50-60 mCi/mmol; American Radio Chemicals, Cat. No. ARC0513).
# Plasmid vector pCMV6-XL5 containing hURAT1 cDNA (Cat. No. SC125624) and the expression vector pCMV6-Neo (Cat. No. pCMVNEO) were obtained from OriGene Technologies, Inc. The full-length hURAT1 cDNA was obtained from the vector pCMV6-XL5 and subcloned into the expression vector pCMV6-Neo to create the hURAT1 expression plasmid pCMV6-hURAT1. The sequences were verified by automatic DNA sequencing.
# For transfection experiments, cells were plated on 60 mm dishes in 1 ml media per dish. […] Stable transfectants expressing hURAT1 (herein after referred as hURAT1-HEK cells) or cells having only the expression vector pCMV6-Neo (herein after referred as mock-HEK cells) were verified using reverse transcription polymerase chain reaction (RT-PCR) methods.
# Before the uptake assay started, the culture medium was removed and the cells were incubated for 5 min in 0.6 ml of HBSS. After that HBSS was removed, the prepared reaction solutions were added into each well and incubated for 5 min at room temperature. Then the reaction solution was removed, cells were washed twice with 0.6 ml of cold HBSS and lysed with 0.2 ml of 0.1 M NaOH for 20 min. […] Test compounds were dissolved in DMSO and the same concentration of DMSO was added into the wells of mock-HEK cells and the hURAT1-HEK cells that didn't contain test compounds. For each test compound, the uptake assay was performed 2 times and carried out in triplicate. Urate uptake of the cells for each test condition was presented as the average percent inhibition in comparison to the DMSO control. The radioactivity values obtained for the wells that contained DMSO were taken as 100% uptake of the cells. The observed concentration-percent inhibition data were fitted to a sigmoidal concentration-effect model, where: IC50^Slope=[(100*Conc^Slope)/% Inhibition]−Conc^Slope
# Additional drug concentrations were tested for determination of IC-50 values for some compounds (Table 6).
# [4] = 100 mg/kg p.o. after oxonate 300 mg/kg i.p.
pIC50 (human URAT1),"inhibition at 10 µM (human URAT1; drug concentration typically 10 micromolar, read-out: % of Inhibition (uric acid uptake)) [%]",Compound,Urine Uric Acid ([1]; 20 mg/kg p.o. after oxonate 300 mg/kg i.p.) [mg/dL],Effect on uric acid in urine versus the Oxonate control group (in words) [1],Urine Uric Acid ([1]; 30 mg/kg p.o. after oxonate 300 mg/kg i.p.) [mg/dL],"Urine Uric Acid [1, 4] [mg/dL]","Effect on plasma uric acid levels over 24 hours (in words) ([2]; single dose 200, 400 or 800 mg, FIG. 2)",Mean Percent Change (blood uric acid levels) ([2]; single oral dose 50 mg) [%],Mean Percent Change (blood uric acid levels) ([2]; single oral dose 100 mg) [%],Mean Percent Change (blood uric acid levels) ([2]; single oral dose 200 mg) [%],Mean Percent Change (blood uric acid levels) ([2]; single oral dose 400 mg) [%],Mean Percent Change (blood uric acid levels) ([2]; single oral dose 800 mg) [%],"Effect on blood uric acid levels (in words) ([2]; single oral dose 50, 100, 200, 400 or 800 mg, 24 hours)","Percent Change in Uric Acid Levels Following a Single Administration of Study Treatment, Mean Percent Change ([3]; 400 mg bid) [%]","Percent Change in Uric Acid Levels Following a Daily Administration of Study Treatment for Seven Days, Mean Percent Change ([3]; 400 mg bid) [%]","Plasma uric acid levels at Time 0 on Day 7 compared to Time 0 on the first day and to placebo (in words) ([3]; 400 mg twice per day or 800 mg once per day for seven days, FIG. 3)","Percent Change in Uric Acid Levels Following a Single Administration of Study Treatment, Mean Percent Change ([3]; 800 mg qd) [%]","Percent Change in Uric Acid Levels Following a Daily Administration of Study Treatment for Seven Days, Mean Percent Change ([3]; 800 mg qd) [%]",Effect on blood uric acid levels (in words) ([3]; daily administration for 7 days),Effect on blood uric acid levels (in words) ([3]; single dose)
,,Oc1ncnc2[nH]ncc12 [Allopurinol],79,reduced the concentration of uric acid in urine,,,,,,,,,,,,,,,,
,,CCc1oc2ccccc2c1C(=O)c1cc(Br)c(O)c(Br)c1 [Benzbromarone],,"induced an increase in uric acid concentration in urine, though to lesser degree than Compound BI",185,173,,,,,,,,,,,,,,
6.02,86.1,"Cc1cccc(C)c1COc1cccc(C(=O)CCC(=O)O)c1 [Compound BI, 4-(3-(2,6-Dimethylbenzyloxy)phenyl)-4-oxobutyric acid]",,significant increase in excreted uric acid,,293,"significant, dose-dependent reductions",−8.8,−13.4,−18.9,−35.0,−32.7,"significant, dose-dependent reduction",−54.0,−56.7,significantly reduced,−45.3,−53.2,significant reduction,significant reduction
